Reference: US20090048218A1, “17Beta-CYANO-18A-HOMO-19-NOR-ANDROST-4-ENE DERIVATIVE, ITS USE AND MEDICAMENTS COMPRISING THE DERIVATIVE” (priority 2007, published 2009)
Read-outs that look alike come from different tables or passages of the source.

How the values were obtained:
PR = target: T1, PR (Rattus norvegicus, UniProt Q63449); assay: maintenance of pregnancy test on the rat; type: in vivo; settings: ovarectomized pregnant rats; for PR in vivo ED50 (pregnancy-maintaining dose): s.c. once daily from day 8 to day 15 or 21, with oestrone 5 μg/kg/day
T1 construct: The maintenance of pregnancy test on ovarectomized rats serves for the determination of the peripheral gestagenic activity of a compound; from tissue; host or cells: whole animal: pregnant, ovariectomized rats
T1 sequence (Q63449 1-923): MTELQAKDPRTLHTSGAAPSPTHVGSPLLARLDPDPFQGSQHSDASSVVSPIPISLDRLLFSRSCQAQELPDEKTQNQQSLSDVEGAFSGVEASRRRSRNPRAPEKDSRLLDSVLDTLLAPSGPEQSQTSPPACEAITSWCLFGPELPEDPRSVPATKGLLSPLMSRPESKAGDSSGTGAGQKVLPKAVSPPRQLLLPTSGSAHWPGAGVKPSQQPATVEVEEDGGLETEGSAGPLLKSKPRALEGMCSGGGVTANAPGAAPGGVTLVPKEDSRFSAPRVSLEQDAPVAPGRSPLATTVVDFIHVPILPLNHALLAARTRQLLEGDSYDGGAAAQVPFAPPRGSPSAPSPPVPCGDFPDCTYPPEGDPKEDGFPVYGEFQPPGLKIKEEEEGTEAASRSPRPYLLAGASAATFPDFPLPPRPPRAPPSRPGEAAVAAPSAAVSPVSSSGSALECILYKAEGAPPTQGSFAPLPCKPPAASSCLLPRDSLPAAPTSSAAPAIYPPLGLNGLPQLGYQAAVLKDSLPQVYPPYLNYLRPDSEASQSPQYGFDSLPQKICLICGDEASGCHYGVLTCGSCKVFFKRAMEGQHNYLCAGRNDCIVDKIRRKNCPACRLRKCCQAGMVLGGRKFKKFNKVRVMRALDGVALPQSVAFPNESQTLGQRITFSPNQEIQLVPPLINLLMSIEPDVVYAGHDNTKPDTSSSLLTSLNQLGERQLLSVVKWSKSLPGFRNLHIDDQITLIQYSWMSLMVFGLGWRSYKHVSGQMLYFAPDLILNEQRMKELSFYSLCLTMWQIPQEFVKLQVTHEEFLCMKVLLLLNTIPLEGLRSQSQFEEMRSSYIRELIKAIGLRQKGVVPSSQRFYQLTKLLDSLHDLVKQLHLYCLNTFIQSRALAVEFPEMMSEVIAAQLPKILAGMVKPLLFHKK
Description: Carrying out the maintenance of pregnancy test on the rat:
In pregnant rats, the removal of the corpora lutea or oophorectomy induces an abortion. By means of the exogenous administration of progestins (gestagens) in combination with a suitable dose of an oestrogen, the maintenance of pregnancy is possible. The maintenance of pregnancy test on ovarectomized rats serves for the determination of the peripheral gestagenic activity of a compound.
Rats were paired overnight during proestrus. Pairing was checked on the morning of the following day by the appraisal of a vaginal smear. The presence of the sperm was evaluated here as day 1 of a commencing pregnancy. On day 8 of the pregnancy, the animals were ovarectomized under ether anaesthesia. The treatment with test compound and exogenous oestrogen (oestrone, 5 μg/kg/day) was carried out subcutaneously once daily from day 8 to day 15 or day 21 of the pregnancy. The first administration on day 8 was carried out two hours before oophorectomy. Intact control animals were given exclusively vehicle.
At the end of the experiment (day 15 or day 21), the animals were sacrificed under a CO2 atmosphere, and live foetuses (foetuses having a beating heart) and implantation sites (early resorptions and dead foetuses including autolysis and atrophic placentas) were counted in both uterine horns. On day 22, it was moreover possible to examine foetuses for malformations. In uteri without foetuses or implantation sites, the number of nidation sites was determined by staining with 10% strength ammonium sulphide solution. The maintenance of pregnancy rate was calculated as the quotient of the number of living foetuses and the total number of nidation sites (both resorbed and dead foetuses and nidation sites). For drospirenone, this value is 3.5 mg/kg/day.

[1] = target: T2, mineralcorticoid receptor (MR) (Homo sapiens, UniProt P08235); assay: MR antagonism, luciferase reporter cell line assay; type: cell-based
T2 sequence (P08235 1-984): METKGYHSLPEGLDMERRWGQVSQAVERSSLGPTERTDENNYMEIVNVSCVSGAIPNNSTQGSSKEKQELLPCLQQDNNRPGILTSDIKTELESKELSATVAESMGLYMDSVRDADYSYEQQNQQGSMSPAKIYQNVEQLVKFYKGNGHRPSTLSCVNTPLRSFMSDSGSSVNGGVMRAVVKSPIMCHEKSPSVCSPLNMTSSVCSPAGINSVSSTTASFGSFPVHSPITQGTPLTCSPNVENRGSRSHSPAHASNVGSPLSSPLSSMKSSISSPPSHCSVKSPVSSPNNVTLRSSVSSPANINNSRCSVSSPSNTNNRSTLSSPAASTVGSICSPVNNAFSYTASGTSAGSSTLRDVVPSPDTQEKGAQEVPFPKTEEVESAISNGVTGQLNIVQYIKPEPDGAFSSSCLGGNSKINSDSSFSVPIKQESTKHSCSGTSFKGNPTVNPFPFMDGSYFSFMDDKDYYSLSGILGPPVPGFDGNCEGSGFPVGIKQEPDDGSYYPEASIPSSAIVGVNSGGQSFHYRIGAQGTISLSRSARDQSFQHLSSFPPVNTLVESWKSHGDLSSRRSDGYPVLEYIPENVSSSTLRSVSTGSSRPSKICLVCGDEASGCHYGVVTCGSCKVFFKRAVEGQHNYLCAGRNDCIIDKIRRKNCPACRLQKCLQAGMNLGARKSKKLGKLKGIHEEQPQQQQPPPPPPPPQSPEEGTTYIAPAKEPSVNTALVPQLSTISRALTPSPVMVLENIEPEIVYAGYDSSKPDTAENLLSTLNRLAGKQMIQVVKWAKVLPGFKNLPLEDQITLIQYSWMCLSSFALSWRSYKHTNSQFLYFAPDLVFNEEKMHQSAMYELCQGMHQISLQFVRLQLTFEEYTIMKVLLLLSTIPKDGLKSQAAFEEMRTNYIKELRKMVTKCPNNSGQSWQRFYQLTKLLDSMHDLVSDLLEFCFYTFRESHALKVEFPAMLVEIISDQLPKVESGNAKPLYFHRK
Protocol: The derivatives according to the invention having the general chemical formula 1 have a very strong gestagenic activity. […] They should therefore have in vivo potassium-retaining, natriuretic (antimeralcorticoid) action. These properties were determined using the test described below:
For the culturing of the cells used for the assay, the culture medium used was DMEM (Dulbecco's Modified Eagle Medium: […] of glucose; PAA, #E15-009) with 10% FCS (Biochrom, S0115, batch #615B), 4 mM L-glutamine, 1% penicillin/streptomycin, 1 mg/ml of G418 and 0.5 μg/ml of puromycin.
Reporter cell lines were grown in a density of 4×10^4 cells per hollow in white, nontransparent tissue culture plates in each case having 96 hollows (PerkinElmer, #P12-106-017) and kept in 6% DCC—FCS (activated carbon-treated serum, for the removal of interfering components contained in the serum). The compounds to be investigated were added eight days later, and the cells were incubated with the compounds for 16 hours. The experiments were carried out in triplicate. At the end of the incubation, the effector-containing medium was removed and replaced by lysis buffer. After luciferase assay substrate (promega, #E1501) had been added, the plates containing the 96 hollows were then introduced into a microplate luminometer (Pherastar, BMG labtech), and the luminescence was measured. The IC50 values were evaluated using software for the calculation of dose-activity relationships.

[2] = reporter cell lines, 16 hours incubation, luciferase luminescence, triplicate
[3] = reporter cell lines, 16 hours incubation, luciferase luminescence, triplicate, read-out: MR antagonism IC50

Compound | PR in vivo ED50 (pregnancy-maintaining dose) (PR) [mg/kg/d s.c.] | MR antagonism activity [% of the maximum effect] [1, 2] | IC50 [1, 3] [nM] | IC50 [1] [nM] | pregnancy-maintaining dose (ED50) (PR; subcutaneous, with oestrone 5 μg/kg/day) [mg/kg/day]
CC[C@]12CC[C@H]3[C@@H]([C@@H]4C[C@@H]4C4=CC(=O)CC[C@@H]43)[C@@H]1[C@@H]1C[C@@H]1[C@]2(C)C#N [17β-Cyano-17α-methyl-6α,7α-methylene-15β,16β-methylene-18a-homo-19-nor-androst-4-en-3-one] | 1.1 | 89.49 % of the maximum effect | 100 | – | –
CC[C@]12CC[C@H]3[C@@H]([C@H]4C[C@H]4C4=CC(=O)CC[C@@H]43)[C@@H]1[C@@H]1C[C@@H]1[C@@H]2C#N [17β-Cyano-6β,7β-15β,16β-bismethylene-18a-homo-19-nor-androst-4-en-3-one] | 0.1 | 97.52 % of the maximum effect | 9.3 | – | –
CC[C@]12CC[C@H]3[C@@H]([C@H](C)CC4=CC(=O)CC[C@@H]43)[C@@H]1CC[C@@H]2C#N [17β-Cyano-7α-methyl-18a-homo-19-nor-androst-4-en-3-one] | – | 99.07 % of the maximum effect | 16 | – | –
CC[C@]12CC[C@H]3[C@@H](CCC4=CC(=O)CC[C@@H]43)[C@@H]1[C@@H]1C[C@@H]1[C@]2(C)C#N [17β-Cyano-17α-methyl-15β,16β-methylene-18a-homo-19-nor-androst-4-en-3-one] | 0.1 | 64.87 % of the maximum effect | 0.48 | – | –
CC[C@]12CC[C@H]3[C@@H](CCC4=CC(=O)CC[C@@H]43)[C@@H]1CC[C@@H]2C#N [17β-Cyano-18a-homo-19-nor-androst-4-en-3-one] | 2.3 | 94.48 % of the maximum effect | 9.1 | – | –
CC[C@]12CC[C@H]3[C@@H](CCC4=CC(=O)CC[C@@H]43)[C@@H]1[C@@H]1C[C@@H]1[C@@H]2C#N (single isomer, unassigned) [17β-Cyano-15β,16β-methylene-18a-homo-19-nor-androst-4-en-3-one] | 0.01 | 103.44 % of the maximum effect | – | 18 | –
C[C@]12CCC(=O)C=C1[C@@H]1C[C@@H]1[C@H]1[C@@H]3[C@@H]4C[C@@H]4[C@@]4(CCC(=O)O4)[C@@]3(C)CC[C@@H]12 [drospirenone, 6β, 7β-15β,16β-dimethylene-3-oxo-17-pregn-4-ene-21,17β-carbolactone, reference compound] | – | – | – | – | 3.5
